Reference: patent US4463003A, “Cephem compounds” (Fujisawa Pharmaceutical Co., Ltd., priority 1982, dated 1984)
In brackets after ≈: the same amount, converted by molar mass.

Key:
[1] = system: Proteus vulgaris 2; assay: Minimal inhibitory concentrations, two-fold agar-plate dilution method; format: cell-based; conditions: HI-agar, 37° C., 20 hours
Experimental: (§1) (A) Minimal inhibitory concentrations In vitro antibacterial activity was determined by the two-fold agar-plate dilution method as described below. One loopful of an overnight culture of each test strain in Trypticase-soy broth (10^8 viable cells per ml) was streaked on heart infusion agar (HI-agar) containing graded concentrations of representative test compound, and the minimal inhibitory concentration (MIC) was expressed in terms of μg/ml after incubation at 37° C. for 20 hours.

[2] = system: Proteus mirabilis 18; assay: as above; format: cell-based; conditions: HI-agar, 37° C., 20 hours
Experimental: as §1

[3] = in vivo; conditions: rat, po, 100 mg/kg
Experimental: Rats anesthetized with pentobarbital were fixed in supine position, and a polyethylene cannula was inserted into the bile duct. Bile samples were collected at 0 to 3, 3 to 6, and 6 to 24 hours after oral administration of 100 mg/kg of the test antibiotic. The antibiotic levels in the bile samples were bioassayed with the standard solution prepared with M/15 phosphate buffer (pH 7.0) and the biliary recovery in 24 hours were calculated.

[4] = Urinary excretion after oral administration in rats; format: in vivo; conditions: rat, urine, 100 mg/kg, 0 to 24 hours, bioassay, read-out: Urinary recovery in 24 hours (%)
Experimental: Urine of rats was collected with a urine collector at 0 to 6, and 6 to 24 hours after oral administration of 100 mg/kg of the test antibiotic. The antibiotic levels in the urine samples were bioassayed with the standard solution prepared with M/15 phosphate buffer (pH 7.0) and the urinary recovery in 24 hours was calculated.

MIC [1]: 0.05 µg/mL (≈ 0.0864 µM) | MIC [2]: 0.05 µg/mL (≈ 0.0864 µM) | dose excreted at 24 h [3]: 12.6% | dose excreted at 24 h [4]: 10.6%
Compound: O=C(O)CO/N=C(\C(=O)NC1C(=O)N2C(C(=O)O)=C(CSc3ccc4nnnn4n3)CSC12)c1ncsn1 (stereo not drawn) [Compound .circle.A, 7-[2-Carboxymethoxyimino-2-(1,2,4-thiadiazol-3-yl)acetamido]-3-(tetrazolo[1,5-b]pyridazin-6-yl)thiomethyl-3-cephem-4-carboxylic acid (syn isomer)]
